Experimental data: publication PMC9646673, “A Novel, Orally Bioavailable, Small-Molecule Inhibitor of PCSK9 With Significant Cholesterol-Lowering Properties In Vivo” (Journal of Lipid Research, 2022)
Several values for one entry are separate records, joined by “and”; a condition that tells them apart may be missing. Equal entries are not always repeated. Where two headings read alike, the source gives them in different places.

What was measured:
APOE∗3-Leiden.CETP mice [1] = experiment: Second efficacy study (35 days, with atorvastatin): plasma lipids; type: in vivo, mouse
Source text: (§1) Animal experiments were approved by the governmental central committee on animal experiments (AVD5010020172064) and TNO’s animal welfare body (TNO-471 and TNO-482). Female APOE∗3-Leiden.CETP transgenic mice (11–16 weeks of age) were bred at the animal facility of TNO-InnoSer (Leiden, The Netherlands). Female animals were used in this study as they are more responsive to dietary cholesterol and fat than males and therefore typically develop atherosclerosis more rapidly than male APOE∗3-Leiden and APOE∗3-Leiden.CETP mice on cholesterol-containing diets ([33], [34]). Although measurements of atherosclerosis were not included as part of the present study, females were used with the prospect in mind that atherosclerosis studies will follow. The mice were housed under standard conditions that included 12 h light-dark cycles and access to a WTD and sterilized tap water ad libitum. Body weight, food intake, and clinical signs of behavior were monitored throughout the studies. […] Time t = 0 (weeks) was designated as the time at which mice were matched into groups after the 3-week run-in period in each efficacy study.
(§2) In both studies, blood samples were collected at weekly intervals via tail vein sampling after fasting the mice for 4 h. Blood samples were centrifugated (4500 g at 4°C), and the plasma was collected for the following analyses. Total plasma cholesterol levels were determined using a Cholesterol CHOD-PAP kit according to the manufacturer’s instructions. Plasma HDL-C levels were determined by first precipitating apoB-containing lipids using PEG 6000/glycine and then utilizing the Cholesterol CHOD-PAP kit ([35]). Non-HDL-C levels were determined by subtracting HDL-C levels from total cholesterol levels ([32]). Group-pooled lipoprotein profiles were determined by FPLC analysis using an AKTApurifier 10 FPLC system (GE Healthcare, Chicago, IL). Plasma PCSK9 levels were determined using a Mouse PCSK9 Quantikine ELISA kit as per the manufacturer’s protocol. ALT and AST levels of group-pooled samples were measured using the Roche Reflotron Plus System (Mannheim, Germany).

APOE∗3-Leiden.CETP mice [2] = experiment: First efficacy study (28 days): plasma lipids; type: in vivo, mouse
Source text: as §1
Treatment times were around 8:00 am and 4:00 pm each day. Throughout the in-life phase of the study, body weight and food intake (per cage) were measured at regular predetermined intervals while blood samples were collected every 7 days. The last gavage was administered on day 27. On day 28, the mice were sacrificed by CO2 asphyxiation, EDTA-plasma was obtained via heart puncture, and the liver was weighed and collected. Throughout the study, plasma cholesterol, triglycerides, HDL-C, lipoprotein profiles, PCSK9 expression levels, aspartate transaminase levels (AST), and alanine transaminase levels (ALT) were measured as described below.
as §2

APOE∗3-Leiden.CETP mice [3] = experiment: Second efficacy study: body weight, food intake, plasma ALT and AST; type: in vivo, mouse; parameters: Body weight (mean ± SD) / Food intake (mean ± SD): unit not given here; settings: NYX-PCSK9i 50 mg/kg BID PO, atorvastatin […]; for Plasma ALT / Plasma AST: group-pooled
Source text: as §1, §2

[4] = Pharmacokinetic study, single dose PO/SC/IV; type: in vivo, female C57BL/6 mice; settings: female, C57BL/6, mouse, plasma; for AUC(0-inf): read-out: AUC Infinity; for MRT inf: read-out: MRT Infinity
Method: Pharmacokinetic study protocols were reviewed and approved by the Institutional Animal Care and Use Committee of ChemPartner (Shanghai, China) under ethics A998HL0119. Female C57BL/6 mice aged 10–14 weeks (18–21 g) were purchased from Jihui Laboratory Animal Co. Ltd. (Shanghai, China) and were given ad libitum access to water and food throughout the in-life phase of the studies. […] At designated timepoints (t = 0.083, 0.25, 0.5, 1, 2, 4, 8, and 24 h), the animals were manually restrained, and 110 μl of blood per timepoint was collected into precooled EDTA-K2 tubes via the facial vein. […] Bioavailability was determined by comparing the plasma exposure levels (AUClast) of NYX-PCSK9i when given orally with plasma exposure levels obtained via the IV route.

PCSK9-D374Y = target: T1, PCSK9-D374Y (Homo sapiens, UniProt Q8NBP7, D374Y); experiment: ex vivo lymphocyte LDLR surface expression assay with recombinant PCSK9-D374Y; type: cell-based; settings: 4 μM, relative to PCSK9 D374Y and vehicle
T1 construct: purchased CycLex (Nagano, Japan); host or cells: added to primary human lymphocytes (PBMCs from a human donor)
Source text: Ethics was granted by the Comité de Protection des Personnes Sud Méditerranée (ID: 2020-A00196-33). Studies using human samples abided by the Declaration of Helsinki principles.

[5] = day 0 (baseline), NYX-PCSK9i 50 mg/kg BID PO
[6] = day 14, NYX-PCSK9i 50 mg/kg BID PO
[7] = day 28, NYX-PCSK9i 50 mg/kg BID PO
[8] = day 35, NYX-PCSK9i 50 mg/kg BID PO
[9] = 30 mg/kg BID PO, day 0 (baseline)
[10] = 50 mg/kg BID PO, day 0 (baseline)
[11] = 30 and 50 mg/kg BID PO, 28 days

T1 sequence (Q8NBP7 153-692 D374Y): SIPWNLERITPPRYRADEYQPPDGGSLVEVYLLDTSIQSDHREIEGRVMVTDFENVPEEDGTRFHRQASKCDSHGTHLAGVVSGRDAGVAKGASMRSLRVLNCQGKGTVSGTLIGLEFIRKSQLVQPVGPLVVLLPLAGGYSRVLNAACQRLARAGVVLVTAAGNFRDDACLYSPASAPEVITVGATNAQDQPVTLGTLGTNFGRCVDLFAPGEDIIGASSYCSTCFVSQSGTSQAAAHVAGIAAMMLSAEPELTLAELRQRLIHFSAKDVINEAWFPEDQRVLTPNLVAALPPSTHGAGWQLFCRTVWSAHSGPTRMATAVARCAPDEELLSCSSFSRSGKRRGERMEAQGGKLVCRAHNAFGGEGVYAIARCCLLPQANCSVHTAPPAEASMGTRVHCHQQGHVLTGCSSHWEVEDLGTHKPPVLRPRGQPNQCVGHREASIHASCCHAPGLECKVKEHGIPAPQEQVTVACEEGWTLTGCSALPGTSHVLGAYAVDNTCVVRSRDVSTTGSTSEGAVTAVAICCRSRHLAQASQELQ
T1 sequence (Q8NBP7 31-152 partner limits assumed): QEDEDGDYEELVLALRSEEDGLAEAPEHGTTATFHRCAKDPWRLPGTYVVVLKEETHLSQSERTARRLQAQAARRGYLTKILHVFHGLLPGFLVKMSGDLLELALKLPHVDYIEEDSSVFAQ

AUC(0-t) ([4]; iv, 5 mg/kg, 5 mg/kg IV): 2010 ng·h/mL
AUC(0-t) ([4]; po, 50 mg/kg, 50 mg/kg PO): ~8100 ng·h/mL
AUC(0-t) ([4]; sc, 50 mg/kg, 50 mg/kg SC): 25500 ng·h/mL
clearance ([4]; 5 mg/kg IV): 38.2 mL/min/kg
half-life ([4]; 5 mg/kg IV): 449 min
AUC(0-inf) ([4]; 5 mg/kg IV): 2190 ng·h/mL
MRT inf ([4]; 5 mg/kg IV): 6.42 h
Vd ([4]; 5 mg/kg IV, read-out: Vss): 14.7 L/kg
half-life ([4]; 50 mg/kg PO): 377 min
AUC(0-inf) ([4]; 50 mg/kg PO): 8700 ng·h/mL
MRT inf ([4]; 50 mg/kg PO): 7.07 h
half-life ([4]; 50 mg/kg SC): 547 min
AUC(0-inf) ([4]; 50 mg/kg SC): 30400 ng·h/mL
MRT inf ([4]; 50 mg/kg SC): 12.2 h
bioavailability ([4]; AUClast 50 mg/kg PO vs 5 mg/kg IV): 40%
SMILES: Cc1cn(-c2cc(CN3CCC[C@H](N)C3)cc(NC(=O)c3cc(-c4ccccc4)ccn3)c2)cn1 [NYX-PCSK9i]
Plasma HDL-cholesterol (APOE∗3-Leiden.CETP mice [1]; [5]): 0.9 ± 0.1 mmol/L
Plasma non- HDL-cholesterol (APOE∗3-Leiden.CETP mice [1]; [5]): 14.6 ± 2.5 mmol/L
Plasma triglycerides (mean ± SD) (APOE∗3-Leiden.CETP mice [1]; [5]): 5.3 ± 1.4 mmol/L
Plasma triglycerides (mean ± SD) (APOE∗3-Leiden.CETP mice [1]; day 7, NYX-PCSK9i 50 mg/kg BID PO): 8.9 ± 3.3 mmol/L
Plasma HDL-cholesterol (APOE∗3-Leiden.CETP mice [1]; [6]): 0.7 ± 0.4 mmol/L
Plasma non- HDL-cholesterol (APOE∗3-Leiden.CETP mice [1]; [6]): 12.7 ± 0.6 mmol/L
Plasma triglycerides (mean ± SD) (APOE∗3-Leiden.CETP mice [1]; [6]): 8.6 ± 2.7 mmol/L
Plasma triglycerides (mean ± SD) (APOE∗3-Leiden.CETP mice [1]; day 21, NYX-PCSK9i 50 mg/kg BID PO): 7.1 ± 1.6 mmol/L
Plasma HDL-cholesterol (APOE∗3-Leiden.CETP mice [1]; [7]): 0.8 ± 0.2 mmol/L
Plasma non- HDL-cholesterol (APOE∗3-Leiden.CETP mice [1]; [7]): 11.8 ± 2.8 mmol/L
Plasma triglycerides (mean ± SD) (APOE∗3-Leiden.CETP mice [1]; [7]): 6.0 ± 1.7 mmol/L
Plasma HDL-cholesterol (APOE∗3-Leiden.CETP mice [1]; [8]): 0.7 ± 0.4 mmol/L
Plasma non- HDL-cholesterol (APOE∗3-Leiden.CETP mice [1]; [8]): 12.8 ± 2.8 mmol/L
Plasma triglycerides (mean ± SD) (APOE∗3-Leiden.CETP mice [1]; [8]): 5.8 ± 1.7 mmol/L
Plasma HDL- cholesterol (mean ± SEM) (APOE∗3-Leiden.CETP mice [2]; [9]): 0.9 ± 0.2 mmol/L
Plasma non-HDL- cholesterol (mean ± SEM) (APOE∗3-Leiden.CETP mice [2]; [9]): 14.7 ± 1.6 mmol/L
Plasma triglycerides (mean ± SD) (APOE∗3-Leiden.CETP mice [2]; [9]): 5.7 ± 2.2 mmol/L
Plasma triglycerides (mean ± SD) (APOE∗3-Leiden.CETP mice [2]; 30 mg/kg BID PO, day 7): 7.0 ± 2.0 mmol/L
Plasma HDL- cholesterol (mean ± SEM) (APOE∗3-Leiden.CETP mice [2]; 30 mg/kg BID PO, day 14): 0.4 ± 0.1 mmol/L
Plasma non-HDL- cholesterol (mean ± SEM) (APOE∗3-Leiden.CETP mice [2]; 30 mg/kg BID PO, day 14): 13.1 ± 2.2 mmol/L
Plasma triglycerides (mean ± SD) (APOE∗3-Leiden.CETP mice [2]; 30 mg/kg BID PO, day 14): 8.9 ± 1.8 mmol/L
Plasma triglycerides (mean ± SD) (APOE∗3-Leiden.CETP mice [2]; 30 mg/kg BID PO, day 21): 6.1 ± 1.5 mmol/L
Plasma HDL- cholesterol (mean ± SEM) (APOE∗3-Leiden.CETP mice [2]; 30 mg/kg BID PO, day 28): 0.8 ± 0.2 mmol/L
Plasma non-HDL- cholesterol (mean ± SEM) (APOE∗3-Leiden.CETP mice [2]; 30 mg/kg BID PO, day 28): 10.5 ± 1.4 mmol/L
Plasma triglycerides (mean ± SD) (APOE∗3-Leiden.CETP mice [2]; 30 mg/kg BID PO, day 28): 5.7 ± 1.9 mmol/L
Plasma HDL- cholesterol (mean ± SEM) (APOE∗3-Leiden.CETP mice [2]; [10]): 0.8 ± 0.1 mmol/L
Plasma non-HDL- cholesterol (mean ± SEM) (APOE∗3-Leiden.CETP mice [2]; [10]): 14.6 ± 2.5 mmol/L
Plasma triglycerides (mean ± SD) (APOE∗3-Leiden.CETP mice [2]; [10]): 6.1 ± 1.9 mmol/L
Plasma triglycerides (mean ± SD) (APOE∗3-Leiden.CETP mice [2]; 50 mg/kg BID PO, day 7): 5.9 ± 2.0 mmol/L
Plasma HDL- cholesterol (mean ± SEM) (APOE∗3-Leiden.CETP mice [2]; 50 mg/kg BID PO, day 14): 0.6 ± 0.2 mmol/L
Plasma non-HDL- cholesterol (mean ± SEM) (APOE∗3-Leiden.CETP mice [2]; 50 mg/kg BID PO, day 14): 9.8 ± 2.4 mmol/L
Plasma triglycerides (mean ± SD) (APOE∗3-Leiden.CETP mice [2]; 50 mg/kg BID PO, day 14): 5.2 ± 1.7 mmol/L
Plasma triglycerides (mean ± SD) (APOE∗3-Leiden.CETP mice [2]; 50 mg/kg BID PO, day 21): 4.2 ± 1.3 mmol/L
Plasma HDL- cholesterol (mean ± SEM) (APOE∗3-Leiden.CETP mice [2]; 50 mg/kg BID PO, day 28): 0.9 ± 0.2 mmol/L
Plasma non-HDL- cholesterol (mean ± SEM) (APOE∗3-Leiden.CETP mice [2]; 50 mg/kg BID PO, day 28): 6.8 ± 1.5 mmol/L
Plasma triglycerides (mean ± SD) (APOE∗3-Leiden.CETP mice [2]; 50 mg/kg BID PO, day 28): 4.1 ± 1.2 mmol/L
reduction of total cholesterol in absolute terms (APOE∗3-Leiden.CETP mice [2]; 50 mg/kg BID PO, day 28): 10.1 mM and 390 mg/dl
HDL-C levels (APOE∗3-Leiden.CETP mice [2]; [11]): no consistent reduction in HDL-C levels
Mean plasma triglyceride levels (APOE∗3-Leiden.CETP mice [2]; [11]): essentially unchanged
Body weight (mean ± SD) (APOE∗3-Leiden.CETP mice [3]; day 0 (baseline)): 21.9 ± 1.7
Food intake (mean ± SD) (APOE∗3-Leiden.CETP mice [3]; day 0 (baseline)): 3.4 ± 0.3
Food intake (mean ± SD) (APOE∗3-Leiden.CETP mice [3]; day 7): 3.5 ± 0.3
Body weight (mean ± SD) (APOE∗3-Leiden.CETP mice [3]; day 14): 23.0 ± 2.4
Food intake (mean ± SD) (APOE∗3-Leiden.CETP mice [3]; day 14): 3.4 ± 0.0
Body weight (mean ± SD) (APOE∗3-Leiden.CETP mice [3]; day 21): 22.4 ± 2.0
Food intake (mean ± SD) (APOE∗3-Leiden.CETP mice [3]; day 21): 2.7 ± 0.0
Body weight (mean ± SD) (APOE∗3-Leiden.CETP mice [3]; day 28): 21.9 ± 2.1
Food intake (mean ± SD) (APOE∗3-Leiden.CETP mice [3]; day 28): 2.7 ± 0.1
Food intake (mean ± SD) (APOE∗3-Leiden.CETP mice [3]; day 35): 2.7 ± 0.3
Plasma ALT (APOE∗3-Leiden.CETP mice [3]; day 0 (baseline)): 91 U/L
Plasma AST (APOE∗3-Leiden.CETP mice [3]; day 0 (baseline)): 91 U/L
Plasma ALT (APOE∗3-Leiden.CETP mice [3]; day 14): 84 U/L
Plasma AST (APOE∗3-Leiden.CETP mice [3]; day 14): 84 U/L
Plasma ALT (APOE∗3-Leiden.CETP mice [3]; day 28): 36 U/L
Plasma AST (APOE∗3-Leiden.CETP mice [3]; day 28): 36 U/L
Plasma ALT (APOE∗3-Leiden.CETP mice [3]; day 35): 42 U/L
Plasma AST (APOE∗3-Leiden.CETP mice [3]; day 35): 42 U/L
LDLR expression levels on surface of human lymphocytes (PCSK9-D374Y): large and significant increase in LDLR expression levels
